{"source": "patent US20240207421A1", "about": "“NERVE TARGETING PEPTIDES AND METHODS OF USE” (ALUME BIOSCIENCES, INC., priority 2020, published 2024)", "data": [{"test_system": "Laminin 421/521", "assay": "Phage display library screening (Example 2), NEB laminin-binding peptides", "design": "species or system human", "conditions": "Laminin 421/521, not 211 and 411; combined unique sequence count, Python/R script analysis", "method": "Phage display library screens were used to identify peptides that bind to target proteins (including specific laminin trimers) that are expressed in human nerves, as described in Table 3. These screens were also carried out to identify peptides that could bind selectively to nerves versus muscle. Such peptides could therefore be useful for systemic in-vivo labeling of nerves during fluorescence assisted surgery. Specifically, m 13 phage libraries expressing 7 or 12 random amino acid peptides, or a cyclic peptide CX7C, on the N-terminus of the minor coat protein pIII (New England Biolabs; NEB) were processed through multiple rounds of selection for binding to target proteins expressed in nerves, or to excised human nerves, nerve extracts, or muscle, as described further below.\nFor screening against the specified target proteins in Table 1, including LN211, LN411, LN421, and LN521, the phage library was processed by up to 4 binding and wash cycles. For selection, phage libraries were incubated for up to 24 hours at 4° C. in 96 well plates that had been coated with one of the target proteins. Plates were then washed with PBS and phage were eluted using 0.2M glycine pH 2.0. Phage supernatants where then neutralized with Tris pH 9.0 prior to plating on TGI bacteria and LB agar plates. Colonies were counted to determine titer followed by DNA preparation of pools of phage and NextGen sequencing. After rounds of selection, phage were pooled and amplified for iterative selection. Phage that were bound at each round were sequenced. NextGen sequencing of pools after 2, 3 and 4 rounds of selection was used to isolate candidate sequences that were analyzed further to identify those that specifically bound each unique target protein.\nFor all NEB sequence datasets, a python script was used to translate, trim, and filter the peptide sequences (see details above). A python script was used to group peptides from different assays according to laminin complex binding (laminin complex 211, 411, 421, or 521) and combine the unique sequence counts for each peptide. An R script was written to merge the peptide sequences from different data files and determine peptides that specifically bind one laminin complex and not the others, or that bind both laminin 421 and 521 but not 211 and 411.", "values": [{"substance": "TLKAGTRANDGV (Laminin 421/521-binding peptide)", "Count": 32}, {"substance": "DWTQVRVTNWFL (Laminin 421/521-binding peptide)", "Count": 35}, {"substance": "GRTIHSM (Laminin 421/521-binding peptide)", "Count": 95}, {"substance": "DDLLTAPRLGVW (Laminin 421/521-binding peptide)", "Count": 54}, {"substance": "CTAWTRQEC (Laminin 421/521-binding peptide)", "Count": 31}, {"substance": "IPVGERK (Laminin 421/521-binding peptide)", "Count": 124}, {"substance": "GAMMNSNNLVAR (Laminin 421/521-binding peptide)", "Count": 43}, {"substance": "SLLSVVNTSSKS (Laminin 421/521-binding peptide)", "Count": 31}, {"substance": "TKGIAPK (Laminin 421/521-binding peptide)", "Count": 28}, {"substance": "CQGWPRPMC (Laminin 421/521-binding peptide)", "Count": 30}, {"substance": "GGYDLPWANWQN (Laminin 421/521-binding peptide)", "Count": 497}, {"substance": "GLLDWGSLQGGN (Laminin 421/521-binding peptide)", "Count": 30}, {"substance": "SLPYAASLNSVE (Laminin 421/521-binding peptide)", "Count": 28}, {"substance": "SPDRTNWGWQTN (Laminin 421/521-binding peptide)", "Count": 29}, {"substance": "MTHSAHNSQKTN (Laminin 421/521-binding peptide)", "Count": 117}, {"substance": "CLQKNHKFC (Laminin 421/521-binding peptide)", "Count": 27}, {"substance": "GHPWTEIDFMSS (Laminin 421/521-binding peptide)", "Count": 50}, {"substance": "GIVPSRHTTGLG (Laminin 421/521-binding peptide)", "Count": 28}, {"substance": "HASNQRV (Laminin 421/521-binding peptide)", "Count": 93}, {"substance": "GGWQSLWDKPEH (Laminin 421/521-binding peptide)", "Count": 31}, {"substance": "GPLLFRG (Laminin 421/521-binding peptide)", "Count": 30}, {"substance": "ALPWQSGVHGTK (Laminin 421/521-binding peptide)", "Count": 34}, {"substance": "DIMKSPRSNLRS (Laminin 421/521-binding peptide)", "Count": 37}, {"substance": "QGWKDRLPIWRY (Laminin 421/521-binding peptide)", "Count": 29}, {"substance": "CKSPAIKGC (Laminin 421/521-binding peptide)", "Count": 29}, {"substance": "YHLGPNQKMRTS (Laminin 421/521-binding peptide)", "Count": 48}, {"substance": "CLHNGQRSC (Laminin 421/521-binding peptide)", "Count": 37}, {"substance": "FNSDSRSTHQED (Laminin 421/521-binding peptide)", "Count": 29}, {"substance": "GYDLSRLWGMAS (Laminin 421/521-binding peptide)", "Count": 39}, {"substance": "SVESNSKLTMPR (Laminin 421/521-binding peptide)", "Count": 29}, {"substance": "CLKDTHLNC (Laminin 421/521-binding peptide)", "Count": 40}, {"substance": "GKPDHRLVSLWR (Laminin 421/521-binding peptide)", "Count": 309}, {"substance": "QLQHVHL (Laminin 421/521-binding peptide)", "Count": 28}, {"substance": "RALDRYLPWSPH (Laminin 421/521-binding peptide)", "Count": 28}, {"substance": "GINLRALDLHAN (Laminin 421/521-binding peptide)", "Count": 27}, {"substance": "SWHFTGTPFMNR (Laminin 421/521-binding peptide)", "Count": 28}, {"substance": "CHQRQQTYC (Laminin 421/521-binding peptide)", "Count": 55}, {"substance": "ADMPQMTLKYGV (Laminin 421/521-binding peptide)", "Count": 47}, {"substance": "RNLHYPLNHPFM (Laminin 421/521-binding peptide)", "Count": 30}, {"substance": "AWVEAQNASNPS (Laminin 421/521-binding peptide)", "Count": 160}, {"substance": "WGLKLPH (Laminin 421/521-binding peptide)", "Count": 117}, {"substance": "EDRMMTYRYTST (Laminin 421/521-binding peptide)", "Count": 29}, {"substance": "DRLTPITWDWSR (Laminin 421/521-binding peptide)", "Count": 86}, {"substance": "QTRWDDGSYQIS (Laminin 421/521-binding peptide)", "Count": 49}, {"substance": "WRSPLTT (Laminin 421/521-binding peptide)", "Count": 30}, {"substance": "LPMLRHS (Laminin 421/521-binding peptide)", "Count": 32}, {"substance": "QTLQTRH (Laminin 421/521-binding peptide)", "Count": 44}, {"substance": "AQRMNQA (Laminin 421/521-binding peptide)", "Count": 38}, {"substance": "AQGVWWSEWFAP (Laminin 421/521-binding peptide)", "Count": 42}, {"substance": "AVVSQNQMSQQK (Laminin 421/521-binding peptide)", "Count": 64}, {"substance": "LDRNADSVRAVL (Laminin 421/521-binding peptide)", "Count": 46}, {"substance": "CNHLTQKLC (Laminin 421/521-binding peptide)", "Count": 45}, {"substance": "WQWRSTELGYRY (Laminin 421/521-binding peptide)", "Count": 36}, {"substance": "QGWFRHS (Laminin 421/521-binding peptide)", "Count": 121}, {"substance": "SNPKHVSSLGQM (Laminin 421/521-binding peptide)", "Count": 40}, {"substance": "SHDVANGTSVRT (Laminin 421/521-binding peptide)", "Count": 29}, {"substance": "SWQMRSY (Laminin 421/521-binding peptide)", "Count": 48}, {"substance": "TTLWLDRDEALK (Laminin 421/521-binding peptide)", "Count": 27}, {"substance": "VPQIRIK (Laminin 421/521-binding peptide)", "Count": 47}, {"substance": "QTFHEYLNPARG (Laminin 421/521-binding peptide)", "Count": 37}, {"substance": "CIGGPHRNC (Laminin 421/521-binding peptide)", "Count": 29}, {"substance": "SDRGKTVLHGQI (Laminin 421/521-binding peptide)", "Count": 54}, {"substance": "WGANTTGRTHGG (Laminin 421/521-binding peptide)", "Count": 40}, {"substance": "SVVGWAAPRTAQ (Laminin 421/521-binding peptide)", "Count": 27}, {"substance": "GDLWNVP (Laminin 421/521-binding peptide)", "Count": 51}, {"substance": "DVIHSSRGAYFE (Laminin 421/521-binding peptide)", "Count": 36}]}]}
